Assay results reported in PubChem BioAssay (NCI).
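Five concentrations, 48 hours, 96-well plates. The concentration for 50% growth inhibition is given as GI50. TGI denotes the concentration required for complete inhibition of growth.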

Columns and labels:
Test in all cases: inhibition of tumour cell growth, NCI panel, 48 h
A498 renal = test system: A498 renal
EKVX NSCLC = test system: EKVX NSCLC
HL-60(TB) leukemia = test system: HL-60(TB) leukemia
MDA-MB-435 = test system: MDA-MB-435
OVCAR-4 ovarian = test system: OVCAR-4 ovarian
PC-3 prostate = test system: PC-3 prostate
SF-539 CNS = test system: SF-539 CNS
SN12C renal = test system: SN12C renal
SNB-19 CNS = test system: SNB-19 CNS
SR leukemia = test system: SR leukemia

Compound	GI50 (A498 renal) [µM]	TGI (A498 renal) [µM]	GI50 (EKVX NSCLC) [µM]	TGI (EKVX NSCLC) [µM]	GI50 (HL-60(TB) leukemia) [µM]	TGI (HL-60(TB) leukemia) [µM]	GI50 (MDA-MB-435) [µM]	TGI (MDA-MB-435) [µM]	GI50 (OVCAR-4 ovarian) [µM]	TGI (OVCAR-4 ovarian) [µM]	GI50 (PC-3 prostate) [µM]	TGI (PC-3 prostate) [µM]	GI50 (SF-539 CNS) [µM]	TGI (SF-539 CNS) [µM]	GI50 (SN12C renal) [µM]	TGI (SN12C renal) [µM]	GI50 (SNB-19 CNS) [µM]	TGI (SNB-19 CNS) [µM]	GI50 (SR leukemia) [µM]	TGI (SR leukemia) [µM]
CC(=O)OC[C@]12CC[C@@H](C(=O)CBr)[C@@H]1[C@H]1CC[C@@H]3[C@@]4(C)CCCNC(C)(C)[C@@H]4CC[C@@]3(C)[C@]1(C)CC2	15	28.5	12.5	25.2	2.11	4.95	3.81	13.8	3.89	18.9	1.65	3.72	2.42	6.57	2.28	5.25	11.5	25.2	2	5.71
CC1CC2OC(=O)C(C)C2CC2(C)C(OC3OC(CO)C(O)C(O)C3O)OCCC12 (centres undefined)		> 100		> 100		> 100		> 100		> 100		> 100		> 100		> 100		> 100		> 100
COc1cc2c3c(n(CCCCN)c(=O)c2cc1OC)-c1cc2c(cc1C3=O)OCO2	7.81	17	0.744	3.57	1.88	15.4	2.29	7.32	0.719	4.66	0.159	0.583	0.0434	0.139	0.0583	0.235	0.464	6.75	0.115	0.417
COC(=O)c1ccccc1OCc1cc(=O)oc2ccc(C)cc12		> 100		> 100		> 100		> 100		> 63.4		> 100		78.5		> 100		38.9		> 100
COc1cccc(-n2nc(C)c3c(N/N=C(\C)c4ccncc4)ncnc32)c1	4.76	> 25	> 25	> 25	> 25	> 25	> 25	> 25	> 25	> 25	> 25	> 25	22.8	> 25	> 25	> 25	> 25	> 25	> 25	> 25
Nc1nc(N)c2nc(CNc3ccc(C(=O)NC(CC(=O)O)C(=O)O)cc3)cnc2n1 (centres undefined)	13.3	> 100	1.57	> 100	0.756	> 100	0.465	> 100	> 100	> 100	0.319	> 75.7	3.93	> 100	0.922	> 100	8.39	> 100	0.267	> 100
CNC(=O)c1cccc2cc(Oc3ccnc4cc(OCC5(N)CC5)c(OC)cc34)ccc12	0.167	3.12	14.6	34.5	8.26	26.3	3.09	12	2.89	21.8	11	25.9	0.403	6.61	6.01	24.1	5.82	30.4	2.29	10.6
COC1=CC(c2ccc[nH]2)=N/C1=C\c1[nH]c(C)c(C(=O)CCCCC(=O)NC(C)(C)C)c1C	2.93	10.8	1.96	13	1.91	4.06	1.75	3.47	1.78	6.29	1.21	2.57	3.27	9.94	2.19	7.32	3.01	18.7	0.395	2.35
O=c1ccn(C2CC(O)C(CO)O2)c(=O)[nH]1 (centres undefined)	> 5000	> 5000	> 5000	> 5000	> 5000	> 5000	> 5000	> 5000	> 5000	> 5000	> 5000	> 5000	> 5000	> 5000	> 5000	> 5000	> 5000	> 5000	> 5000	> 5000
COC(=O)[C@@]12OC[C@]34[C@H]([C@@H](O)[C@@H]1O)[C@@]1(C)[C@H](O)C(=O)C=C(C)[C@@H]1C[C@H]3OC(=O)C(OC(C)=O)[C@@H]24 (some centres undefined)	0.0146	0.0413	0.0529	0.372	0.0119	0.0315	0.0319	0.148	0.0398	0.272	0.0334	0.134	0.0218	0.0612	0.046	0.307	0.0232	0.299	0.0195	0.0425
COc1cc2ccccc2oc1=O		> 100		> 100		> 100		> 100		> 100		> 100		> 100		> 100		> 100		> 100
C=C1/C(=C\C=C2/CCC[C@]3(C)[C@@H]([C@H](C)CCCC(C)(C)O)CC[C@@H]23)C[C@@H](OC(=O)CBr)C[C@@H]1O	0.469	3.17	3.17	19.5	0.3	1.09	4.22	10.9	0.329	1.6	1.11	5.88	0.212	0.629	4.93	11.9	11.2	24.9	0.0902	1.5
COc1cccc2c1ccc1nc3cccc(C(=O)N[C@H](C)CN(C)C)c3nc12	0.0793	0.235	0.141	3.16	0.32	1.98	0.0976	0.986	0.0927	0.894	0.0819	2.13	0.157	1.8	0.0879	11.7	0.0907	10.9	0.0315	
C[C@]12CCc3sc(NCCc4ccccc4)nc3C1=CC[C@@H]1[C@@H]2CC[C@]2(C)C(=O)CC[C@@H]12	4.43	> 100	90.1	> 100	2.93	9.1	3.01	> 100	3.93	> 100	3.35	> 100	1.69	3.62	2.89	> 100	97.5	> 100	3.06	> 100
Cc1cc(NCCN(C(C)C)C(C)C)nc(/N=C(\N)Nc2ccc(Cl)c(C(F)(F)F)c2)n1	0.139	1.42	1.48	3.75	0.38	0.952	0.196	0.389	0.697	1.97	0.596	2.45	0.179	0.329	1.34	2.87	1.48	2.83	0.155	0.425
O=C(Nc1ccncc1)C(=O)c1cn(Cc2ccc(Cl)cc2)c2ccccc12	0.544	> 100	0.261	> 100	0.0327	0.237	< 0.01	0.044	0.106	> 100	0.0419	> 100	0.0278	0.0788	0.0725	> 100	0.0622	> 100	0.0298	> 100
COc1c(O)cc2oc(-c3ccc(O)cc3)cc(=O)c2c1O		16.1		98.1		> 100		> 100		> 100		> 100		> 100		> 100		> 100		63.6
COc1cccc(-c2nn(-c3ccccc3)cc2-c2ccnc(NCCCNC(=O)Nc3ccc(Cl)c(Cl)c3)c2)c1	2.15	8.08	3.51	17.5	2.51	5.81	2.01	4.82	3.55	18.1	3.96	22.4	2.25	5.29	5.73	25	4.01	25.6	1.73	4.62
CC1OC(OC2C[C@](O)(C(=O)CF)Cc3c(O)c4c(c(O)c32)C(=O)c2ccccc2C4=O)CC(N)C1O (some centres undefined)		1.28		4.64		< 0.0291		0.321		0.86		0.354		1.33		0.338		5.23		0.0708
